Reference: paper PMC11745148, “Identification of Cannabidiolic and Cannabigerolic Acids as MTDL AChE, BuChE, and BACE‐1 Inhibitors Against Alzheimer's Disease by In Silico, In Vitro, and In Vivo Studies” (Phytotherapy Research, 2024)
Where two headings read alike, the source gives them in different places.

How the values were obtained:
[1] = target: T1, Acetylcholinesterase from Electrophorus electricus AChE (Electrophorus electricus, UniProt O42275); assay: Cholinesterase activity by the Elmann method, kinetic parameters and Ki on AChE; type: biochemical; details: for inhibition type on AChE: increase in Km without affecting Vmax
T1 construct: purchased Sigma-Aldrich
T1 sequence (O42275 24-633): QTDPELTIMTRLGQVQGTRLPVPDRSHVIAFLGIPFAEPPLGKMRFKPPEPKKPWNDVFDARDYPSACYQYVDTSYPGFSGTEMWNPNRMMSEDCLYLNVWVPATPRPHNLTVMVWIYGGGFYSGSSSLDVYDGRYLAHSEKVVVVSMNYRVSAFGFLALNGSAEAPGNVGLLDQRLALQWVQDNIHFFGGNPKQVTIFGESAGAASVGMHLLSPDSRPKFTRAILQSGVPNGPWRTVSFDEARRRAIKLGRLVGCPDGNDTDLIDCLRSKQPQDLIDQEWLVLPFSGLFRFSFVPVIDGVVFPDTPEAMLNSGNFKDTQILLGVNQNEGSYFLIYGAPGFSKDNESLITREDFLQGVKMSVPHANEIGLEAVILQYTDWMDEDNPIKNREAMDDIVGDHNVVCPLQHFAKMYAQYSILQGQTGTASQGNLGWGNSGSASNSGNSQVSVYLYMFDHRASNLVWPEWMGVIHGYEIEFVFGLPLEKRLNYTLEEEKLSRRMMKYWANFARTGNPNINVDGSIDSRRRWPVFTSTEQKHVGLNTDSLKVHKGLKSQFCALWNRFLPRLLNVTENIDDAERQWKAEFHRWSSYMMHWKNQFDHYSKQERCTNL

[2] = target: T2, butirrylcholinesterase from equine serum BuChE (Equus caballus, UniProt P81908); assay: Cholinesterase activity by the Elmann method, kinetic parameters and Ki on BuChE; type: biochemical; details: for inhibition type on BuChE: decrease of Vmax without affecting Km
T2 construct: purchased Sigma-Aldrich; host or cells: equine serum
T2 sequence (P81908 whole entry): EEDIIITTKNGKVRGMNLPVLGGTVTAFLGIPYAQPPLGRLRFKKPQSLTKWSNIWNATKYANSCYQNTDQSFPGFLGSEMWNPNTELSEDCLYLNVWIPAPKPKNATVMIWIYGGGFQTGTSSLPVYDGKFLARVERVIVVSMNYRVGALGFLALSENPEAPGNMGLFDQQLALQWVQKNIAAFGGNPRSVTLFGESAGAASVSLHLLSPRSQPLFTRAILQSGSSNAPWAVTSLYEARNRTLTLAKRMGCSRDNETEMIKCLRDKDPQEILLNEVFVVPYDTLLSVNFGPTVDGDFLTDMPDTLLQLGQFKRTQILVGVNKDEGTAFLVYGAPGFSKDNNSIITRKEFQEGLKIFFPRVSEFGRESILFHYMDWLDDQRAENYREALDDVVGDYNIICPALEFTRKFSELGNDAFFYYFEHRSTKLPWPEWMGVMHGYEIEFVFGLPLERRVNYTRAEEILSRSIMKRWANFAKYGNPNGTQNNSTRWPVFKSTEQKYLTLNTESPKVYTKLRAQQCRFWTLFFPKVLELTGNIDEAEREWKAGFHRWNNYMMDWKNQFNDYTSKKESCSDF

mouse BACE-1 = target: T3, mouse BACE-1 (Mus musculus, UniProt P56818); assay: BACE-1 activity, fluorimetric method; type: biochemical; details: for IC50: mouse BACE-1, pH 4.5, semilogarithmic plot
T3 construct: purchased Life Technology
T3 sequence (P56818 46-501): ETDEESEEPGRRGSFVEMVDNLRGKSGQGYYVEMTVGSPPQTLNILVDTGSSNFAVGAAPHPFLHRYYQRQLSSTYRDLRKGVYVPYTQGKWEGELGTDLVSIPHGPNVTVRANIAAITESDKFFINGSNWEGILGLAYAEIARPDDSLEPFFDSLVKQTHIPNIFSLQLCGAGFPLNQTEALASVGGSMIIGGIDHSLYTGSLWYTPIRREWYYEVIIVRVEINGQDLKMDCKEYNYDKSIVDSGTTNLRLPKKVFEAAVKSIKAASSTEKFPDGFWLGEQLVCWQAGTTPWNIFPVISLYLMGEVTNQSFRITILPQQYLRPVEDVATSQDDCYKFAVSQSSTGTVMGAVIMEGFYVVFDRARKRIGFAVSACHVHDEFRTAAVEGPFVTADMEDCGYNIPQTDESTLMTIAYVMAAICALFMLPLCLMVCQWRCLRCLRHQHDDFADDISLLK

[3] = target: T4, Human β-amyloid peptide (1–40) (Homo sapiens, UniProt P05067); assay: Aβ 1–40 self-aggregation inhibition assay (thioflavine T); type: biochemical; details: 96 μM peptide, 37°C, 24 h
T4 construct: Human β‐amyloid peptide (1–40, cat. ab120479); purchased Abcam ab120479
T4 sequence (P05067 672-711 limits assumed): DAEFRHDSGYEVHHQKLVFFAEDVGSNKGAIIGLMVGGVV

GPR109A (HCA2) = target: T5, GPR109A (HCA2) (Homo sapiens, UniProt Q8TDS4); assay: β-arrestin recruitment assay on GPR109A (HCA2-Tango, HTLA-HEK293 cells); type: cell-based; details: HTLA-HEK293 cells expressing HCA2; different doses; 20 h; vs vehicle
T5 construct: Tango fusion module; host or cells: HTLA-HEK293 cells stably expressing β-arrestin2-TEV and tTA-driven luciferase
T5 sequence (Q8TDS4 whole entry, the tested form may be a part): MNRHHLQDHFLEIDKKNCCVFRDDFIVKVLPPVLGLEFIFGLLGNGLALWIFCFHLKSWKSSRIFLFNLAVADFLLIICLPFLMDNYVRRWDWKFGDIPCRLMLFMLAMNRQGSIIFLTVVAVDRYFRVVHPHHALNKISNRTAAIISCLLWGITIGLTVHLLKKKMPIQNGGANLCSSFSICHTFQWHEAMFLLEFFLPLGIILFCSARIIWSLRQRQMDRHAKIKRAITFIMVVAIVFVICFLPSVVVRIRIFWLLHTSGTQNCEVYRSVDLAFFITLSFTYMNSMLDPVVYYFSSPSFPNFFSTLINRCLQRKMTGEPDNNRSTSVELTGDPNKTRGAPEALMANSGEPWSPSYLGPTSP

sAβ-injected mice [4] = assay: Novel object recognition test in sAβ-induced AD mouse model; type: in vivo, CD1 male mice; details: 10 mg/kg i.p. repeated, days 3 to 10 after sAβ; test at 1 h; sAβ/veh −0.115 ± 0.030; mean ± SEM
sAβ-injected mice [5] = assay: Tail suspension test in sAβ-induced AD mouse model; type: in vivo, CD1 male mice; details: 10 mg/kg i.p. repeated, days 3 to 10 after sAβ; sAβ/veh 74.250 ± 7.465; mean ± SEM
[6] = test system: LEC-DG pathway (hippocampus) of sAβ-injected mice; assay: In vivo LTP recording in the LEC-DG pathway of sAβ-injected mice; design: species or system CD1 male mice; details: 10 mg/kg i.p. repeated; for fEPSP slope after TBS: 30–60 min after TBS, sAβ/veh 110.92 ± 0.86; for fEPSP slope after TBS / fEPSP amplitude 30–60 min after TBS: relative to baseline; for fEPSP amplitude 30–60 min after TBS: sAβ/veh 110.5 ± 1.73
TRPM7 [7] = assay: Trpm7 mRNA expression in hippocampus by qPCR; type: in vivo, mouse; details: treatment day 3 to 10 postinduction; upregulated by sAβ
PPARα/γ = details: ref D'Aniello et al. [2019]; cited from earlier work
TRPM7 [8] = details: ref Suzuki et al. [2023]; cited from earlier work
[9] = target: T6, cannabinoid CB2 receptor (CNR2-Tango) (Homo sapiens, UniProt P34972); assay: β-arrestin recruitment assay, positive control CNR2-Tango; type: cell-based
T6 construct: Tango fusion module; expressed in transfected cells; host or cells: HTLA-HEK293 cells
T6 sequence (P34972 whole entry, the tested form may be a part): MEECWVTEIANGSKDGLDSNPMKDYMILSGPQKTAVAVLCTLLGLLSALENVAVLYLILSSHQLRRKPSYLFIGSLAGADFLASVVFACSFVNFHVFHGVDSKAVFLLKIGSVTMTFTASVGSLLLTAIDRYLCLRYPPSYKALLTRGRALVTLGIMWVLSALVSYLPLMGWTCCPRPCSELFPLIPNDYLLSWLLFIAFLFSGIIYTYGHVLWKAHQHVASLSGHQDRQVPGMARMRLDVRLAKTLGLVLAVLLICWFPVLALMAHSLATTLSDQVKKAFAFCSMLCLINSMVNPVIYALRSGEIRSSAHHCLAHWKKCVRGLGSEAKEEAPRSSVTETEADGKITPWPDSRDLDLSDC

[10] = especially in a tween-based vehicle; ref Anderson et al. [2019]; cited from earlier work
[11] = AChE, inhibitor 1.25 µM, Lineweaver-Burk equation, from increase of Km, mean Ki in μM, read-out: Ki LB
[12] = AChE, inhibitor 1.25 µM, Michaelis-Menten interpolation, from increase of Km, mean Ki in μM, read-out: Ki MM
[13] = AChE, inhibitor 2.50 µM, Lineweaver-Burk equation, from increase of Km, mean Ki in μM, read-out: Ki LB
[14] = AChE, inhibitor 3.00 µM, Lineweaver-Burk equation, from increase of Km, mean Ki in μM, read-out: Ki LB
[15] = AChE, inhibitor 3.00 µM, Michaelis-Menten interpolation, from increase of Km, mean Ki in μM, read-out: Ki MM
[16] = mean over experiments, n = 6 CBDA, n = 7 CBGA, competitive inhibition, read-out: calculated Ki, AChE
[17] = BuChE, Exp. 1, inhibitor 10 µM, Lineweaver-Burk equation, from decrease of Vmax, mean Ki in μM, read-out: Ki LB
[18] = BuChE, Exp. 1, inhibitor 10 µM, Lineweaver-Burk equation, no inhibitor 0.295
[19] = BuChE, Exp. 1, inhibitor 10 µM, Michaelis-Menten interpolation, from decrease of Vmax, mean Ki in μM, read-out: Ki MM
[20] = BuChE, Exp. 1, inhibitor 10 µM, Michaelis-Menten interpolation, no inhibitor 0.299
[21] = BuChE, Exp. 2, inhibitor 2.66 µM, Lineweaver-Burk equation, from decrease of Vmax, mean Ki in μM, read-out: Ki LB
[22] = BuChE, Exp. 2, inhibitor 2.66 µM, Lineweaver-Burk equation, no inhibitor 0.220
[23] = BuChE, Exp. 2, inhibitor 2.66 µM, Michaelis-Menten interpolation, from decrease of Vmax, mean Ki in μM, read-out: Ki MM
[24] = mean over experiments, n = 4, noncompetitive inhibition, read-out: calculated Ki, BuChE

| SMILES | Ki [1, 11] [µM] | Ki [1, 12] [µM] | Ki [1, 13] [µM] | Ki [1, 14] [µM] | Ki [1, 15] [µM] | inhibition type on AChE [1] | Ki [1, 16] [µM] | Ki [2, 17] [µM] | Vmax LB [2, 18] | Ki [2, 19] [µM] | Vmax MM [2, 20] | Ki [2, 21] [µM] | Vmax LB [2, 22] | Ki [2, 23] [µM] | inhibition type on BuChE [2] | Ki [2, 24] [µM] | IC50 (mouse BACE-1) [µM] | IC50 [3] [µM] | β-arrestin recruitment / activation of GPR109A (GPR109A (HCA2)) | immobility in tail suspension test (sAβ-injected mice [5]) [s] | other results |
| --- | --- | --- | --- | --- | --- | --- | --- | --- | --- | --- | --- | --- | --- | --- | --- | --- | --- | --- | --- | --- | --- |
| CCCCCc1cc(O)c(C/C=C(\C)CCC=C(C)C)c(O)c1C(=O)O [CBGA, cannabigerolic acid] | 13.5 | 9.1 | 9.6 | 6.5 | 8.1 | competitive inhibitors | 10.5 ± 2.9 | 39.2 | 0.235 | 26 | 0.216 | 14.1 | 0.185 | 14 | noncompetitive inhibitors | 23.3 ± 12 | 1.4 ± 0.1 | 47.7 ± 2.1 | no recruitment of β‐arrestin and no direct receptor activation | 20.500 ± 6.764 | Ki ([1]; AChE, inhibitor 2.50 µM, Michaelis-Menten interpolation, from increase of Km, mean Ki in μM, read-out: Ki MM): 12.2 µM; Ki ([1]; AChE, inhibitor 3.75 µM, Lineweaver-Burk equation, from increase of Km, mean Ki in μM, read-out: Ki LB): 14.4 µM; Ki ([1]; AChE, inhibitor 3.75 µM, Michaelis-Menten interpolation, from increase of Km, mean Ki in μM, read-out: Ki MM): 26.7 µM; Vmax MM ([2]; BuChE, Exp. 2, inhibitor 2.66 µM, Michaelis-Menten interpolation, no inhibitor 0.249): 0.209; efficiency in inhibiting mBACE-1, CBGA relative to CBDA (mouse BACE-1; ratio of IC50 values): roughly 4 times; NOR index (recognition index) (sAβ-injected mice [4]): 0.183 ± 0.052; fEPSP slope after TBS [6]: 203.21 ± 22.55%; fEPSP amplitude 0–15 min (baseline) [6]: 100.8 ± 0.61%; fEPSP slope 0–15 min (baseline) [6]: 100.94 ± 1.15%; fEPSP amplitude 30–60 min after TBS [6]: 174.34 ± 6.97%; Trpm7 expression in hippocampus (TRPM7 [7]): reverted to the basal level; activity on PPARα/γ (PPARα/γ): dual PPARα/γ agonists; activity on TRPM7 (TRPM7 [8]): inhibitors of TRPM7 |
| CCCC(C)(C)c1ccc2c(c1)OC(C)(C)[C@@H]1CC=C(C)C[C@@H]21 [JWH-133] |  |  |  |  |  |  |  |  |  |  |  |  |  |  |  |  |  |  |  |  | β-arrestin recruitment at CB2 receptor [9]: strong β-arrestin recruitment |
| C=C(C)[C@@H]1CCC(C)=C[C@H]1c1c(O)cc(CCCCC)c(C(=O)O)c1O [CBDA, cannabidiolic acid] | 55 | 32.1 | 10.5 | 10.6 | 3.4 | competitive inhibitors | 7.9 ± 4.3 | 6.1 | 0.112 | 6.6 | 0.119 | 7.5 | 0.162 | 6.4 | noncompetitive inhibitors | 6.7 ± 0.6 | 6.1 ± 0.2 | 57.5 ± 0.8 | no recruitment of β‐arrestin and no direct receptor activation | 64.000 ± 12.523 | Ki ([1]; AChE, inhibitor 1.75 µM, Lineweaver-Burk equation, from increase of Km, mean Ki in μM, read-out: Ki LB): 4.2 µM; Ki ([1]; AChE, inhibitor 1.75 µM, Michaelis-Menten interpolation, from increase of Km, mean Ki in μM, read-out: Ki MM): 13.9 µM; fEPSP slope after TBS [6]: 157.46 ± 14.5%; fEPSP amplitude 0–15 min (baseline) [6]: 99.97 ± 0.024%; fEPSP slope 0–15 min (baseline) [6]: 99.95 ± 0.27%; fEPSP amplitude 30–60 min after TBS [6]: 132.08 ± 2.83%; Trpm7 expression in hippocampus (TRPM7 [7]): reverted to the basal level; activity on PPARα/γ (PPARα/γ): dual PPARα/γ agonists; activity on TRPM7 (TRPM7 [8]): inhibitors of TRPM7; blood–brain barrier crossing [10]: can cross the blood–brain barrier |
